Where two headings read alike, the source gives them in different places.
How the values were obtained:
[1] = molecular target: recombinant 17β-HSD13 protein (Homo sapiens (Human), UniProt Q7Z5P4); assay: 17β-HSD13 biochemical assay (NAD+/NADH Glo chemiluminescence); settings: 17β-HSD13 50 nM, NAD+ 10 mM, β-estradiol 20 μM, 2 hours room temperature
Procedure, shortened: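 Compounds preincubated 1 h at room temperature with 50 nM enzyme and 10 mM NAD+ (final) in 200 mM Tris pH 7.5, 0.01% Triton X-100, 0.02% BSA. Reaction started with 20 μM β-estradiol and run 2 hours at room temperature; NADH formation detected by NAD+/NADH-Glo chemiluminescence. IC50 from four-parameter logistic fit.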

[2] = molecular target: HEK293 cells expressing 17β-HSD13 (Homo sapiens (Human), UniProt Q7Z5P4); assay: 17β-HSD13 cell-based assay (β-estradiol conversion, LC-MS/MS)
Experimental: HEK293 cells expressing 17β-HSD13 either stably or transiently were incubated with compounds for 60 min at 37° C. in a humidified incubator. After this first incubation step, β-estradiol was added to each well of the microtiter plate and incubated for 3 h at 37° C. in the humidified incubator. After treatment with β-Estradiol, 50 μL of supernatant was transferred to a 96-V plate containing 100 μL acetonitrile and centrifuged at 3900 rpm for 45 min. Finally, 50 μL of supernatant were taken for LC-MS/MS analysis. The chromatography part was run on a Xbridge 30 mm×2.1 mm column (Waters), at 40 degrees Celsius and a flow rate of 0.8 mL/min for 5 min, while the MS was done on a Q Exactive Orbitrap (Fisher Scientific) in Target SIM mode and negative polarity with a spray voltage of 3.5 kV. EC50 values were determined with GraphPad Prism®, where log-transformed concentration values and the inhibition data were fitted to a four-parameter logistic equation. Y=Bottom+(Top−Bottom)/(1+10^((Log EC50−X)*Hill Slope)). The original, % control, or % inhibition data are represented by Y along with their minimal (Bottom) and maximal (Top) values. The inhibitor concentration is represented by X, EC50 is the concentration at 50% maximal value, and Hill Slope is the slope factor.

[3] = HEK293 cells stably expressing 17β-HSD13 (footnote b), read-out: EC50, nM Stable
[4] = HEK293 cells transiently expressing 17β-HSD13 (footnote a), read-out: EC50, nM Transient

Sequence of HEK293 cells expressing 17β-HSD13 (Q7Z5P4 20-300): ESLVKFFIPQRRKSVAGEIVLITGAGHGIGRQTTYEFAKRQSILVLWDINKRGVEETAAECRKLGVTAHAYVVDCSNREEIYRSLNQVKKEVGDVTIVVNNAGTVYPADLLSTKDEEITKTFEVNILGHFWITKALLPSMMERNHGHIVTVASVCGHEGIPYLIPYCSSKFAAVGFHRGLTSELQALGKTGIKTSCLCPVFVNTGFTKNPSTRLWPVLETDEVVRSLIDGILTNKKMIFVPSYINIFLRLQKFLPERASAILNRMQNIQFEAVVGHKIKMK
Sequence of recombinant 17β-HSD13 protein (Q7Z5P4 20-300): as above

IC50 [1]	EC50 [2, 3]	EC50 [2, 4]	Structure (SMILES)
3.72 nM	14.7 nM	–	C[C@@H](c1ccccc1)N1C(=O)N(Cc2nnc(-c3ccc(F)c(O)c3Cl)s2)C2(CC2)C1=O [Compound I-32, (S)-4-((5-(2-chloro-4-fluoro-3-hydroxyphenyl)-1,3,4-thiadiazol-2-yl)methyl)-6-(1-phenylethyl)-4,6-diazaspiro[2.4]heptane-5,7-dione]
86.1 nM	–	175 nM	CCN1C(=O)C(C)N(Cc2nnc(-c3ccc(F)c(O)c3F)s2)C1=O (centres unmarked) [Compound I-3, 1-((5-(2,4-difluoro-3-hydroxyphenyl)-1,3,4-thiadiazol-2-yl)methyl)-3-ethyl-5-methylimidazolidine-2,4-dione]
150 nM	–	960 nM	CCN1C(=O)N(Cc2nnc(-c3ccc(Cl)c(O)c3Cl)s2)C2(CC2)C1=O [Compound I-9, 4-((5-(2,4-dichloro-3-hydroxyphenyl)-1,3,4-thiadiazol-2-yl)methyl)-6-ethyl-4,6-diazaspiro[2.4]heptane-5,7-dione]
4 nM	108 nM	–	Cc1c(-c2nnc(CN3C(=O)N([C@@H](c4ccccc4)C(F)(F)F)C(=O)C34CC4)s2)ccc(F)c1O [Compound I-91, (S)-4-((5-(4-fluoro-3-hydroxy-2-methylphenyl)-1,3,4-thiadiazol-2-yl)methyl)-6-(2,2,2-trifluoro-1-phenylethyl)-4,6-diazaspiro[2.4]heptane-5,7-dione]
5.33 nM	40.9 nM	–	O=C1N(Cc2ccccc2)C(=O)C2(CC2)N1Cc1nnc(-c2ccc(F)c(O)c2Cl)s1 [Compound I-35, 6-benzyl-4-((5-(2-chloro-4-fluoro-3-hydroxyphenyl)-1,3,4-thiadiazol-2-yl)methyl)-4,6-diazaspiro[2.4]heptane-5,7-dione]
10.6 ± 0.919 nM	–	20.6 nM	CCCN1C(=O)N(Cc2nnc(-c3ccc(F)c(O)c3F)s2)C2(CC2)C1=O [Compound I-4, 4-((5-(2,4-difluoro-3-hydroxyphenyl)-1,3,4-thiadiazol-2-yl)methyl)-6-propyl-4,6-diazaspiro[2.4]heptane-5,7-dione]
1.09 ± 0.23 nM	6.41 ± 1.23 nM	–	O=C1N([C@@H](c2ccccc2)C(F)(F)F)C(=O)C2(CC2)N1Cc1nnc(-c2ccc(F)c(O)c2Cl)s1 [Compound I-52, 4-[[5-(2-chloro-4-fluoro-3-hydroxy-phenyl)-1,3,4-thiadiazol-2-yl]methyl]-6-[(1S)-2,2,2-trifluoro-1-phenyl-ethyl]-4,6-diazaspiro[2.4]heptane-5,7-dione]
4.6 nM	119 nM	–	O=C1N(Cc2ccc(Cl)cc2Cl)C(=O)C2(CC2)N1Cc1nnc(-c2ccc(F)c(O)c2Cl)s1 [Compound I-34, 4-((5-(2-chloro-4-fluoro-3-hydroxyphenyl)-1,3,4-thiadiazol-2-yl)methyl)-6-(2,4-dichlorobenzyl)-4,6-diazaspiro[2.4]heptane-5,7-dione]
5.6 nM	26.3 nM	–	O=C1N(C(c2ccccc2)C(F)(F)F)C(=O)C2(CC2)N1Cc1nnc(-c2ccc(F)c(O)c2Cl)s1 (stereo in doubt) [Compound I-53, 4-[[5-(2-chloro-4-fluoro-3-hydroxy-phenyl)-1,3,4-thiadiazol-2-yl]methyl]-6-[(S)-(difluoromethyl-fluoranyl)-phenyl-methyl]-4,6-diazaspiro[2.4]heptane-5,7-dione]
2.68 nM	10.8 nM	–	C[C@H](c1ccccc1)N1C(=O)N(Cc2nnc(-c3ccc(F)c(O)c3Cl)s2)C2(CC2)C1=O [Compound I-31, 4-[[5-(2-chloro-4-fluoro-3-hydroxy-phenyl)-1,3,4-thiadiazol-2-yl]methyl]-6-[(1R)-1-phenylethyl]-4,6-diazaspiro[2.4]heptane-5,7-dione]

Continued, compound first:

Structure (SMILES)	IC50 [1]	EC50 [2, 3]	EC50 [2, 4]
CC[C@@H](C)N1C(=O)N(Cc2nnc(-c3ccc(F)c(O)c3F)s2)C2(CC2)C1=O [Compound I-42, (R)-6-(sec-butyl)-4-((5-(2,4-difluoro-3-hydroxyphenyl)-1,3,4-thiadiazol-2-yl)methyl)-4,6-diazaspiro[2.4]heptane-5,7-dione]	4.08 nM	15.7 nM	–
O=C1N(C(c2ccc(F)cc2F)C(F)(F)F)C(=O)C2(CC2)N1Cc1nnc(-c2ccc(F)c(O)c2Cl)s1 (single isomer, unassigned) [Compound I-54A]	0.857 ± 0.153 nM	5.63 ± 0.961 nM	–
CCN1C(=O)N(Cc2nnc(-c3ccc(F)c(O)c3Cl)s2)C2(CC2)C1=O [Compound I-10, 4-((5-(2-chloro-4-fluoro-3-hydroxyphenyl)-1,3,4-thiadiazol-2-yl)methyl)-6-ethyl-4,6-diazaspiro[2.4]heptane-5,7-dione]	17.9 ± 0.0566 nM	51 nM	118 nM
O=C1N([C@@H](c2ccccc2)C(F)(F)F)C(=O)C2(CC2)N1Cc1nnc(-c2ccc(F)c(O)c2F)s1 [Compound I-99A, 4-[[5-(2,4-difluoro-3-hydroxy-phenyl)-1,3,4-thiadiazol-2-yl]methyl]-6-[(1S)-2,2,2-trifluoro-1-phenyl-ethyl]-4,6-diazaspiro[2.4]heptane-5,7-dione]	1.17 ± 0.185 nM	4.95 ± 0.0122 nM	–
O=C1N([C@H](c2ccc(F)cc2F)C(F)(F)F)C(=O)C2(CC2)N1Cc1nnc(-c2ccc(F)c(O)c2F)s1 [Compound I-90A, (R)-4-((5-(2,4-difluoro-3-hydroxyphenyl)-1,3,4-thiadiazol-2-yl)methyl)-6-(1-(2,4-difluorophenyl)-2,2,2-trifluoroethyl)-4,6-diazaspiro[2.4]heptane-5,7-dione]	1.01 ± 0.125 nM	8.38 nM	–
O=C1N(CC2(C(F)(F)F)CC2)C(=O)C2(CC2)N1Cc1nnc(-c2ccc(F)c(O)c2F)s1 [Compound I-19, 4-((5-(2,4-difluoro-3-hydroxyphenyl)-1,3,4-thiadiazol-2-yl)methyl)-6-((1-(trifluoromethyl)cyclopropyl)methyl)-4,6-diazaspiro[2.4]heptane-5,7-dione]	14.8 ± 2.51 nM	78.8 nM	–
O=C1N(Cc2ccccc2)C(=O)C2(CC2)N1Cc1nnc(-c2ccc(F)c(O)c2F)s1 [Compound I-20, 6-benzyl-4-((5-(2,4-difluoro-3-hydroxyphenyl)-1,3,4-thiadiazol-2-yl)methyl)-4,6-diazaspiro[2.4]heptane-5,7-dione]	2.28 ± 0.933 nM	11.6 nM	–
CCN1C(=O)N(Cc2nnc(-c3ccc(F)c(O)c3F)s2)C2(CC2)C1=O [Compound I-7, 4-((5-(2,4-difluoro-3-hydroxyphenyl)-1,3,4-thiadiazol-2-yl)methyl)-6-ethyl-4,6-diazaspiro[2.4]heptane-5,7-dione]	16.6 ± 8.74 nM	–	18.8 nM
O=C1N(Cc2nnc(-c3ccc(F)c(O)c3F)s2)C2(CC2)C(=O)N1C1(c2ccccc2)CC1 [Compound I-86, 4-((5-(2,4-difluoro-3-hydroxyphenyl)-1,3,4-thiadiazol-2-yl)methyl)-6-(1-phenylcyclopropyl)-4,6-diazaspiro[2.4]heptane-5,7-dione]	2.5 nM	4.74 nM	–
O=C1N([C@@H](c2ccc(-c3ccc(F)cc3)cc2F)C(F)(F)F)C(=O)C2(CC2)N1Cc1nnc(-c2ccc(F)c(O)c2F)s1 [Compound I-97, (S)-4-((5-(2,4-difluoro-3-hydroxyphenyl)-1,3,4-thiadiazol-2-yl)methyl)-6-(1-(3,4′-difluoro-[1,1′-biphenyl]-4-yl)-2,2,2-trifluoroethyl)-4,6-diazaspiro[2.4]heptane-5,7-dione]	0.79 nM	4.66 nM	–

From patent US20250026745A1 (Bluejay Therapeutics, Inc., priority 2023, published 2025)
